These results are taken from patent US20220259235A1, “EGFR Inhibitor, Composition, and Preparation Method Therefor” (BETTA PHARMACEUTICALS CO., LTD, priority 2019, published 2022).

Usually IC50 stands for the midpoint of a concentration-inhibition curve.

Series [1] can be described thus: Liver microsomal clearance test, monkey. It counts as in vitro ADME. The settings on record: Monkey liver microsomes, 0.5 mg/mL, NADPH. Here is the method:
(§1) Test 3 Liver Microsomal Clearance Test
(§2) 1. Prepare 0.5 mg/mL liver microsome diluent containing K-butter and MgCl2:
(§3) 2.1 Take 356 μL of the liver microsome diluent prepared above and add it to the preset wells of the incubation plate, the number of multiple wells n=1, mark it as the incubation plate.
(§4) 2.2 Take 4 μL of the positive control compound Verapamil (50 μM) and the working solution of the test compound (200 μM) into the above incubation plate containing 356 μL of liver microsome diluent, and mix well (The dilution solvent from the stock solution to the working solution is a mixed solvent of acetonitrile: methanol: water=1:1:2, and the final concentration of DMSO is ≤0.5%),
(§5) 2.3 Place the incubation plate in a 37° C. thermostatic oscillator (at shaking speed of 100 rpm) for pre-incubation with 10 min.
(§6) 2.4 Add 40 μL of 10 mM NADPH (add 40 μL of K-buffer to the wells without NADPH) to each reaction well to start the reaction and start timing.
(§7) 3. Sample collection and treatment:
(§8) 3.1 After adding NADPH to start the reaction, immediately take out 50 μL of the sample and add it to the precipitation plate pre-added with 400 μL of stop solution, and shake on an oscillator at 600 rpm for 5 min at room temperature as a 0 min sample.
(§9) 3.2 At the predetermined time points of 5 min, 15 min and 45 min, take out 50 μL of sample from the incubation plate and add it to the precipitation plate. The subsequent steps were the same as the treatment of 0 min sample. 3.3 After balancing, centrifuge above precipitation plate at 3200 rpm for 10 min at 4° C.
(§10) 3.4 Take 50 μL of the supernatant after centrifugation and add it to pre-added 20% acetonitrile water at appropriate proportion, shake on an oscillator at 600 rpm for 2 min at room temperature, mix well, and put it into the LC-MS/MS sampler for sample injection.
(§11) Analysis of Experimental Data
1. […]

The target of series [2] is Ba/F3-Δ19del/T790M/C797S (Homo sapiens, UniProt P00533, T790M/C797S, cells depend on it, form not given). The experiment in a line: Ba/F3-Δ19del/T790M/C797S cell proliferation assay (CellTiter Glo, 72 h). The settings on record: CTG, numeric values, read-out: BaF3 Δ19del/T790M/C797S IC50. It counts as cell-based. Here is the method:
(§12) Cell line: Ba/F3 cells with stable overexpression of Δ19del/T790M/C797S or L858R/T790M/C797S mutant genes, named Ba/F3-Δ19del/T790M/C797S and Ba/F3-L858R/T790M/C797S, and A431 EGFR wild-type cell line.
(§13) RPMI 1640 and 10% FBS and 1% PS; _EM, 10% PBS and 1% PS
(§14) a) Dilute the test compound (20 mM stock solution) to 10 mM with 100% DMSO as the starting concentration, and then serially dilute 3 times with a “9+0” concentration in 96-well dilution plate (Cat #P-05525, Labcyte);
(§15) b) Dilute compound solution thereof to 1:100 in medium to prepare 10-fold working solution;
(§16) a) Centrifuge the growth cells in logarithmic phase at 1000 rpm for 5 minutes, resuspend the cells in culture medium, and then count the cells;
(§17) b) Inoculate the cells into a 96-well cell culture plate with a density of 2000 cells/well;
(§18) a) The compound prepared in Step 2 was added to a cell plate with 15 μL per well at final concentrations of 1000, 333, 111.1, 37, 12.3, 4.1, 1.4, 0.5, 0.2, and 0 nM. The final concentration of DMSO was 0.1%. The blank control well is with medium (0.1% DMSO).
(§19) b) Incubate cells in an incubatorother 72 hours;
(§20) a) Take out the 96-well cell culture plate and add 50 μl CTG reagent (CellTiter Glo kit, promega, Cat #G7573);
(§21) b) Shake the plate for 2 minutes and let cool at room temperature for 10 minutes,
(§22) c) Read luminous signal value with Perkin Elmer reader.
as §11
(§23) The data were analyzed by GraphPad Prism 6.0 software to obtain the fitting curve of compound activity.
(§24) Fining compound IC50 from nonlinear regression equation:
(§25) Y=Min+(Max−Min)/(1+10^((LogIC50−X)*slope));
(§26) X: Logarithm of compound concentration; Y: luminous signal
(§27) As illustrated in examples, IC50 value is within the following range for the compound of the present invention: “A” represents “IC50≤50 nM”; “B” represents “50 nM<IC50<100 nM”.
On the technique in general: Cellular ATP, detected with luciferase, serves as a proxy for viable cell number.

The nature of series [3]: Liver microsomal clearance test, dog. It counts as in vitro ADME. The settings on record: Dog liver microsomes, 0.5 mg/mL, NADPH. The protocol:
as §1, §2, §3, §4, §5, §6, §7, §8, §9, §10, §11
1. […]
A general note: Liver microsomes are a subcellular fraction often used to study metabolism.

In series [4] the target is T1, hERG protein (Homo sapiens, UniProt Q12809).
T1 construct: purchased
T1 sequence (Q12809 whole entry): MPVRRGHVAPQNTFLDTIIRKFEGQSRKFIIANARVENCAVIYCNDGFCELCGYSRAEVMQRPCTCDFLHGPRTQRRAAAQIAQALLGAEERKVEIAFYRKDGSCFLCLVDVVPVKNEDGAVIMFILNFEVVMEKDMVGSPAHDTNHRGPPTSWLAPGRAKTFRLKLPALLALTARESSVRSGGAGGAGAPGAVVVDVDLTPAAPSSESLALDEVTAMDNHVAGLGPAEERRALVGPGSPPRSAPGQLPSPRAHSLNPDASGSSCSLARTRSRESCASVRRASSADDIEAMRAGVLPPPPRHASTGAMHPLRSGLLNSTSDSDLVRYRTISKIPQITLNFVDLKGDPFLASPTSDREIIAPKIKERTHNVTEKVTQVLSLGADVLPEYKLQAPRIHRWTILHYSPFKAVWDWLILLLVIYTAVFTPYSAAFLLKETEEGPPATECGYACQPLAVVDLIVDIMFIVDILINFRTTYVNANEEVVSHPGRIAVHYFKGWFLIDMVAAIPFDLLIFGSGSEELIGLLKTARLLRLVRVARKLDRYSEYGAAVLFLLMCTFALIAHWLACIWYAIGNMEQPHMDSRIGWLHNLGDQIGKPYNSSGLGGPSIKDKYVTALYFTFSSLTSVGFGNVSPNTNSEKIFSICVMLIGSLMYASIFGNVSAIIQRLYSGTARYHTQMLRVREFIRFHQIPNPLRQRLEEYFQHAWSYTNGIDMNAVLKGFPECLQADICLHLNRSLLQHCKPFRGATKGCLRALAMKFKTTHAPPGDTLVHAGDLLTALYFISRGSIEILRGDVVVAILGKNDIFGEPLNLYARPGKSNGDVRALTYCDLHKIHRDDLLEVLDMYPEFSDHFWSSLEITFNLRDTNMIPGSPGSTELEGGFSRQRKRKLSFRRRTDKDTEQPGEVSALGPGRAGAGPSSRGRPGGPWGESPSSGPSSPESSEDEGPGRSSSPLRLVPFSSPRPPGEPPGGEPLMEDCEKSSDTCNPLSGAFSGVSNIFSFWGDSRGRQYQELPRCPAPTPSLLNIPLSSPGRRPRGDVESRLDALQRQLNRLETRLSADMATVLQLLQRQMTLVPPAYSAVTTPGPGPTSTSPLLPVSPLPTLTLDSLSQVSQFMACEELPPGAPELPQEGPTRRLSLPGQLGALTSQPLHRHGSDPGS
Description: hERG IC50 test (tracer/membranes fluorescence polarization). The following applies: hERG membranes and tracer, read-out: IC50 results of hERG protein to compound. Format: binding. The protocol: 1. Thaw hERG kits (Tracer, E-4031 and Membranes) at room temperature;
2. Add 10 μL of positive compound E-4031 and 10 μL of test compound (10 mM) to 384 well plate (Corning, Art. No. 3658);
3. E-4031 is sequentially 5-fold diluted by pure water (10 concentration points in total), and the test compound is sequentially 5-fold diluted by DMSO (10 concentration points in total).
4. Take 1 μL of all gradient concentrations and add them in parallel to the wells containing 24 μL Assay buffer, and dilute 25 times (take 3 μL of the maximum concentration of E-4031 and add it to 72 μL Assay buffer).
5. Add 10 μL Membranes to another black 384-well plate (Coming, Art.4511).
6. Take 5 μL of 25-fold diluted working solution of positive and test compounds, and add it to above-mentioned plate with 10 μL Membranes, 2 copies at each concentration.
7. Negative control: Add 5 μL Assay buffer to the well with 10 μL Membranes, 8 copies in parallel;
8. Positive control: Add 5 μL E-4031 (120 μM) to the well with 10 μL Membranes, 8 copies in parallel;
9. […]
10. Before measuring the fluorescence polarization, cover the analysis plate to protect the reagents from light and evaporation, and incubate at room temperature (20-25° C.) for 2 hours.
11. Read fluorescence polarization in PerkinElmer EnVision® Multilabel after incubation; […]

For series [5], the target named is Ba/F3-L858R/T790M/C797S (Homo sapiens, UniProt P00533, T790M/C797S/L858R, cells depend on it). Description: Ba/F3-L858R/T790M/C797S cell proliferation assay (CellTiter Glo, 72 h). It counts as cell-based. The following applies: CTG, numeric values, read-out: BaF3 L858R/T790M/C797S IC50. The protocol: as §12, §13, §14, §15, §16, §17, §18, §19, §20, §21, §22, §11, §23, §24, §25, §26, §27
Ba/F3-L858R/T790M/C797S, sequence (P00533 whole entry T790M/C797S/L858R): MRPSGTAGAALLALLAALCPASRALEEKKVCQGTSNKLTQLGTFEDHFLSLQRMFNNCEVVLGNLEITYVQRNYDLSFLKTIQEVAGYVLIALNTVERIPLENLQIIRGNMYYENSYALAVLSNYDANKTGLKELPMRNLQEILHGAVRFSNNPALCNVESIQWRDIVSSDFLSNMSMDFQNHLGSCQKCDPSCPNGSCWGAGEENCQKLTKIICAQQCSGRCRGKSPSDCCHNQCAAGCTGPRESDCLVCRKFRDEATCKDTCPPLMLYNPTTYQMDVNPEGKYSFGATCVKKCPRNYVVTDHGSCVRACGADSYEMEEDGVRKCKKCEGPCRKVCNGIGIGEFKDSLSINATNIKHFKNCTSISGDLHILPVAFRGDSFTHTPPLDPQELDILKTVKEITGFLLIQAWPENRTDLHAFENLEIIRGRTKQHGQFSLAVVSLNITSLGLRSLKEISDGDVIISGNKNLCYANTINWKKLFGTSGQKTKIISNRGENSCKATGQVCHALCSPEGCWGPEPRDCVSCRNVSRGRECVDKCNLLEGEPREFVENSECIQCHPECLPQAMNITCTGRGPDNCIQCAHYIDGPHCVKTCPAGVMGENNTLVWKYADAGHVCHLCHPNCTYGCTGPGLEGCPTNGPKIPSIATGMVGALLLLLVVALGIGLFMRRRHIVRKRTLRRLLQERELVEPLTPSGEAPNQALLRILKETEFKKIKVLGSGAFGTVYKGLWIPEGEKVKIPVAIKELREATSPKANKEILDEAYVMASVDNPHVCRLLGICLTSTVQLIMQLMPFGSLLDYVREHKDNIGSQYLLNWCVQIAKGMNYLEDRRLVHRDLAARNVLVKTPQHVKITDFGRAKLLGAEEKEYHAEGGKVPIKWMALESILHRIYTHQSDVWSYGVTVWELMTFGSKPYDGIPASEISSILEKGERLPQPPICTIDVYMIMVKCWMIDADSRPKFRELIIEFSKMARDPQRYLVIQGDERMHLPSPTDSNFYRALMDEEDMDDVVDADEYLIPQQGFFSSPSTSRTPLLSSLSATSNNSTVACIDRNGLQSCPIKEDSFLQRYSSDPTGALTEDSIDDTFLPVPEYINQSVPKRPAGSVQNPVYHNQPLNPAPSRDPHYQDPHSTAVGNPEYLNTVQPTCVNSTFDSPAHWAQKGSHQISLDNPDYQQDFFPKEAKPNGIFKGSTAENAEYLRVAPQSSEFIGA

The nature of series [6]: Liver microsomal clearance test, mice. Format: in vitro ADME. The following applies: Mice liver microsomes, 0.5 mg/mL, NADPH. Here is the method:
as §1, §2, §3, §4, §5, §6, §7, §8, §9, §10, §11
1. […]

Series [7] concerns A431 EGFR wild-type cell line. Description: A431 EGFR wild-type cell proliferation assay (CellTiter Glo, 72 h). The settings on record: Homo sapiens, A-431, CTG, read-out: A431 EGFR WT IC50. Format: cell-based. Here is the method:
as §12, §13, §14, §15, §16, §17, §18, §19, §20, §21, §22, §11, §23, §24, §25, §26, §27

Series [8] can be described thus: Liver microsomal clearance test, human. Format: in vitro ADME. The following applies: Human liver microsomes, 0.5 mg/mL, NADPH. Here is the method: as §1, §2, §3, §4, §5, §6, §7, §8, §9, §10, §11
1. […]

Series [9] is described as follows: Liver microsomal clearance test, rat. Format: in vitro ADME. The settings on record: Rat liver microsomes, 0.5 mg/mL, NADPH. Here is the method: as §1, §2, §3, §4, §5, §6, §7, §8, §9, §10, §11
1. […]

For series [10], the target named is EGFR Δ19del/T790M/C797S (Homo sapiens, UniProt P00533, T790M/C797S, form not given). The experiment in a line: EGFR Δ19del/T790M/C797S kinase test (mobility shift, Caliper EZ Reader). It counts as biochemical. The following applies: kinase enzymatic activity, class symbols. The protocol: Mobility variation analysis was performed to determine the affinity of the compound for EGFRΔ19del/T790M/C797S. The enzymatic reaction scheme is as follows:
1. Prepare 1* kinase buffer as follows:
2. Preparation of compound concentration gradient: The test compound was tested with an initial concentration of 3000 nM or 100 nM, diluted in a 384 source plate to a 100% DMSO solution with 100-fold final concentration, and the compound is 3-fold diluted with Precision to 10 concentrations. A dispenser Echo 550 was used to transfer 250 nL 100-fold final concentration of the compound to the target plate OptiPlate-384F.
3. Prepare 2.5-fold final concentration of kinase solution with 1×Kinase buffer;
4. Add 10 μL of 2.5-fold final concentration of kinase solution to the compound well and the positive control well; add 10 μL of 1×Kinase buffer to the negative control well.
5. Centrifuge at 1000 rpm for 30 seconds, shake the reaction plate for well mixation, and then incubate at room temperature for 10 minutes.
6. Prepare a mixture of ATP and Kinase substrate at 5/3-fold final concentration with 1×Kinase buffer.
7. Add 15 μL mixture of 5/3-fold final concentration of ATP and substrate to start reaction.
8. Centrifuge the 384-well plate at 1000 rpm for 30 seconds, shake it well and then incubate it at room temperature for corresponding time.
9. Add 30 μL of stop detection solution to stop the kinase reaction, centrifuge at 1000 rpm for 30 seconds, shake it well.
10. Read conversion rate with Caliper EZ Reader.
% Inhibition=((Conversion%_max−Conversion%_sample)/(Conversion%_max−Conversion%_min))*100
Wherein: Conversion%_sample is the sample conversion rate reading; Conversion%_min: Mean value of negative control wells, representing the conversion rate reading of wells without enzymatic activity; Conversion%_max: Mean value of positive control wells, representing the conversion rate reading of wells without compound inhibition.
The dose-effect curve was fitted with concentration log value as X-axis and percentage inhibition rate as Y-axis. Log (inhibitor) vs. Response—Variable Slope of GraphPad Prism 5 was used to fit the dose-effect curve to obtain IC50 value of enzymatic activity for each compound.
The calculation formula is as Y=Bottom (Top−Bottom)/(1+10^((LogIC50−X)*HillSlope)).
As illustrated in examples, IC50 value is within the following range for the compound of the present invention: “A” represents “IC50≤1nM”; “B” represents “1 nM<IC50≤100nM”.

Ba/F3-Δ19del/T790M/C797S, sequence (P00533 with tags, fused parts or gaps DEL746-750/T790M/C797S, form open): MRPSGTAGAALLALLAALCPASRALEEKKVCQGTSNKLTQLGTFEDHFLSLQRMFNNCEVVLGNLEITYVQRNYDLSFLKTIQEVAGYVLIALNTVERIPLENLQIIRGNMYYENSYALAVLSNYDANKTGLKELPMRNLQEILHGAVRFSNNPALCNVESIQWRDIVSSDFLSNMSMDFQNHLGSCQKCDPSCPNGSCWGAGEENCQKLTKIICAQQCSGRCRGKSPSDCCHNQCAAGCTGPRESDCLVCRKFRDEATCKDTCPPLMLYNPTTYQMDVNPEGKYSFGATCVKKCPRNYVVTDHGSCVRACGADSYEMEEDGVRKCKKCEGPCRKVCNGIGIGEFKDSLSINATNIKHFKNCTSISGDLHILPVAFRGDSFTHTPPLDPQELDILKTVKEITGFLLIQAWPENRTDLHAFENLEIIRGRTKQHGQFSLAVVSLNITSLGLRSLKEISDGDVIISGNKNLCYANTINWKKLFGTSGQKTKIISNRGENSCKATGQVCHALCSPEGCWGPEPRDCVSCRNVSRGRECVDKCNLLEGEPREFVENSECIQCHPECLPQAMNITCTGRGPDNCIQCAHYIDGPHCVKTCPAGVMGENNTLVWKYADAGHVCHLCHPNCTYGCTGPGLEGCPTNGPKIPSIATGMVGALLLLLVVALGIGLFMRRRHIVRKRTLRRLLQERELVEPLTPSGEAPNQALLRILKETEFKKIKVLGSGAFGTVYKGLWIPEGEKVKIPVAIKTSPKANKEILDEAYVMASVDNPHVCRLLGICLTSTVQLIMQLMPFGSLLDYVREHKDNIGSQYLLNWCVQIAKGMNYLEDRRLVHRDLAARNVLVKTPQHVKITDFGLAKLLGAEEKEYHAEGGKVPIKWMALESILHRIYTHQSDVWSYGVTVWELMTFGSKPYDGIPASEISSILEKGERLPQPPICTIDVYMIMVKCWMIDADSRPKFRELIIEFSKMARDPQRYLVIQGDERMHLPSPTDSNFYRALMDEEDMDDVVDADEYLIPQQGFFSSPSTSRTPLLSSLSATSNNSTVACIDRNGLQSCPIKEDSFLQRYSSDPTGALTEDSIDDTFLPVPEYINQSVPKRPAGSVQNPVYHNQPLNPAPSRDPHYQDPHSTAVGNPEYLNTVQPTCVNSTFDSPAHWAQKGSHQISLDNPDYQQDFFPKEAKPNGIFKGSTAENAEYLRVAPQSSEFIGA
EGFR Δ19del/T790M/C797S, sequence (P00533 with tags, fused parts or gaps DEL746-750/T790M/C797S, form open): as above

For `COc1cc(N2CCC(N3CCN(C)CC3)CC2)c(C)cc1Nc1ncc(Br)c(Nc2ccc3nccnc3c2P(C)(C)=O)n1` [A, reference compound], the “Instrinsic clearance of liver microsomal protein, CLint” value in series [1] is 65.4 μL/min/mg proteins; in [3], 15.6 μL/min/mg proteins; in series [6], 16.4 μL/min/mg proteins; in [8] it was 17.4 μL/min/mg proteins; in series [9] it was 22 μL/min/mg proteins. Besides, the GI50 in [2] amounted to 0.022 µM; in series [5], 0.0167 µM. For the same molecule, the 50% inhibitory concentration (IC50) in series [4] worked out at 13.5 µM; in [7], 0.375 µM.

Consider `COc1cc(N2CCC(N3CCCCC3)CC2)c(-c2cnn(C)c2)cc1Nc1ncc(Cl)c(Nc2ccc3nccnc3c2P(C)(C)=O)n1` [Compound 5, (6-((2-((4-([1,4′-Dipiperidine]-1′-yl)-2-methoxy-5-(1-methyl-1H-pyrazole-4-yl)phenyl)amino)-5-chloropyrimidin-4-yl)amino)quinoxalin-5-yl)dimethylphosphine oxide], for which the “Instrinsic clearance of liver microsomal protein, CLint” value is on record as 43.2 μL/min/mg proteins in [1]; 25.8 μL/min/mg proteins in series [3]; 11.2 μL/min/mg proteins in series [6]; 15.4 μL/min/mg proteins in [8]; 0.8 μL/min/mg proteins in [9]. For the same molecule, the GI50 is 0.003 µM in series [2] and 0.0065 µM in series [5]. Besides, the IC50 was 0.114 µM in series [7] and no more than 0.001 µM in [10].
